Reference: patent US8242166B2, “C(10) ethyl ester and C(10) cyclopropyl ester substituted taxanes” (Florida State University Research Foundation, Inc., priority 2008, dated 2012)
Like-named read-outs stand apart in the source and are kept apart here.

Experiments:
[1] = tested on: A375; assay: MTT cytotoxicity (IC50), A375; type: cell-based; conditions: Homo sapiens, A-375
Description: (§1) Compound 17932 was tested in four of these cell lines, while the remaining compounds were tested in all of these cell lines. All cell lines were maintained in RPMI-1640 tissue culture medium (TCM, supplemented with antibiotics and 10% fetal bovine serum) and cultured at 37° C. in humidified air containing 5% CO2. To assess the antiproliferative effects of the test compounds, 172 μL of tumor cell suspension (1.45×10^4 cells/ml) were added to each well of a 96-well plate and incubated for 24 h at 37° C. in 5% CO2 in air to allow cells to adhere. Seven 2-fold drug dilutions in TCM/DMSO were performed in triplicate in separate 96-well plates and 28 μL was transferred to the wells containing tumor cells (200 μL final volume/0.1% DMSO). Plates were incubated for 72 h and cell viability was determined by adding 50 μL of warm TCM containing 5 mg/mL MTT (3-[4,5-dimethylthiazol-2-yl]-2,5-diphenyltetrazolium bromide) to each well and incubating for 1 h at 37° C. Plates were processed and the absorbances of the resulting solutions were measured by a plate reader at 570 nm. […] (GraphPad Prism version 4.00 for Windows). Studies were conducted by Taxolog, Inc., Tallahassee, Fla.

[2] = tested on: SNB-19; assay: MTT cytotoxicity (IC50), SNB-19; type: cell-based; conditions: Homo sapiens, 72 h, read-out: IN Vitro IC50 (nm) SNB19
Description: as §1

[3] = tested on: MALME-3; assay: MTT cytotoxicity (IC50), MALME-3; type: cell-based; conditions: Homo sapiens, 72 h, read-out: IN Vitro IC50 (nm) Malme3
Description: as §1

[4] = tested on: HT29; assay: MTT cytotoxicity (IC50), HT29; type: cell-based; conditions: Homo sapiens, HT-29, 72 h, read-out: IN Vitro IC50 (nm) HT29
Description: as §1

[5] = tested on: OVCAR4; assay: MTT cytotoxicity (IC50), OVCAR4; type: cell-based; conditions: Homo sapiens, OVCAR-4, 72 h, read-out: IN Vitro IC50 (nm) OVCAR4
Description: as §1

[6] = tested on: human HT29 colon carcinoma xenografts
[7] = tested on: DLD-1; assay: MTT cytotoxicity (IC50), DLD-1; type: cell-based; conditions: Homo sapiens
Description: as §1

[8] = tested on: PANC-1; assay: MTT cytotoxicity (IC50), PANC-1; type: cell-based; conditions: Homo sapiens, 72 h, read-out: IN Vitro IC50 (nm) Panc
Description: as §1

[9] = tested on: A549; assay: MTT cytotoxicity (IC50), A549; type: cell-based; conditions: Homo sapiens, 72 h, read-out: IN Vitro IC50 (nm) A549
Description: as §1

[10] = tested on: HOP-18; assay: MTT cytotoxicity (IC50), HOP-18; type: cell-based; conditions: Homo sapiens, 72 h, read-out: IN Vitro IC50 (nm) HOP18
Description: as §1

[11] = tested on: TK-10; assay: MTT cytotoxicity (IC50), TK-10; type: cell-based; conditions: Homo sapiens, 72 h, read-out: IN Vitro IC50 (nm) TK10
Description: as §1

[12] = tested on: 786-0; assay: MTT cytotoxicity (IC50), 786-0; type: cell-based; conditions: Homo sapiens
Description: as §1

[13] = tested on: SK-MEL-28; assay: MTT cytotoxicity (IC50), SK-MEL-28; type: cell-based; conditions: Homo sapiens, 72 h, read-out: IN Vitro IC50 (nm) ske-mel28
Description: as §1

[14] = tested on: HT29 human tumor xenografts; assay: HT29 xenograft study e139 (Example 23); type: in vivo, nude mice
[15] = tested on: HCT116; assay: MTT cytotoxicity (IC50), HCT116; type: cell-based; conditions: Homo sapiens, HCT-116, 72 h, read-out: IN Vitro IC50 (nm) HCT116
Description: as §1, with “All” for “Compound 17932 was tested in four of these cell lines, while the remaining compounds were tested in all of these cell lines. All”

[16] = MTT, 72 h, read-out: IN Vitro IC50 (nm) DLD1
[17] = Resistance MDR1+, read-out: DLD1 Colon (Table 4, quantity not named; IC50 values as Table 2)

**Q.** Which results are given for `CC(=O)O[C@H]1C(=O)[C@@]2(C)[C@H]([C@H](OC(=O)c3ccccc3)[C@]3(O)C[C@H](OC(=O)[C@H](O)[C@@H](NC(=O)c4ccccc4)c4ccccc4)C(C)=C1C3(C)C)[C@]1(OC(C)=O)CO[C@@H]1C[C@@H]2O` [Paclitaxel, paclitaxel, reference compound]?
**A.** IC50 ([1]; MTT, 72 h, read-out: IN Vitro IC50 (nm) A375): 8 nM; IC50 ([1]; Resistance MRP9, read-out: A375 Melanoma (Table 4, quantity not named; IC50 values as Table 2)): 8 nM; IC50 [2]: 6.1 nM; IC50 [3]: 6.5 nM; IC50 [4]: 2.8 nM; IC50 [5]: 2.9 nM; antitumor activity ([6]; 30 mg/kg q4d×4): relatively weak activity; D 38 TTE ([6]; mouse, in vivo): 27.5 ± 1.9 (6) days; Number of Death NTR ([6]; mouse, in vivo): 0; Number of Death TR ([6]; mouse, in vivo): 0; IC50 [7, 16]: > 10 nM; IC50 [7, 17]: 41 nM; IC50 [8]: 4.1 nM; IC50 [9]: 3.8 nM; IC50 [10]: 7.2 nM; IC50 [11]: 4.8 nM; IC50 ([12]; MTT, 72 h, read-out: IN Vitro IC50 (nm) 786-0): > 10 nM; IC50 ([12]; Resistance MDR1+, read-out: 786-0 Renal (Table 4, quantity not named; IC50 values as Table 2)): > 10 nM; IC50 [13]: 5.4 nM

**Q.** Which results are given for `CC(=O)O[C@@]12CO[C@@H]1C[C@H](O)[C@@]1(C)C(=O)[C@H](OC(=O)C3CC3)C3=C(C)[C@@H](OC(=O)[C@H](O)[C@@H](NC(=O)OC4CCCC4)c4cccs4)C[C@@](O)([C@@H](OC(=O)c4ccccc4)C12)C3(C)C` (stereo partly shown) [Compound 17932]?
**A.** MTV (Day 61) ([14]; 20 mg/kg i.v. q4d×4): 78 mm^3; PR responses ([14]; 20 mg/kg i.v. q4d×4, six mice): 5; Day 51 mm^3 (tumor size) ([14]; 20 mg/kg iv q4d × 4): 99.7 mm^3; Day 54 mm^3 (tumor size) ([14]; 20 mg/kg iv q4d × 4): 109.4 mm^3; Max. BW Loss %; Day ([14]; 20 mg/kg iv q4d × 4): −19.3%; Day 16; Number of Death NTR ([14]; 20 mg/kg iv q4d × 4, N=6): 0; Number of Death TR ([14]; 20 mg/kg iv q4d × 4, N=6): 0; IC50 [4]: 0.9 nM; IC50 [7, 16]: 1.4 nM; IC50 [7, 17]: 1.4 nM; IC50 [8]: 1.2 nM; IC50 [15]: 0.6 nM
